We go through 11 compounds from patent US11046658B2, “Aminopyrazine derivatives as PI3K-γ inhibitors” (Incyte Corporation, priority 2018, dated 2021).

pIC50: −log10 of the molar value. Where a name gives a salt, the structure may show the parent alone. Bounds are passed on as bounds.

The first experiment relates to Phosphorylated Ribosomal Protein S6 (RPS6) in THP-1 cells. Description: THP-1 RPS6 ELISA Assay. As to conditions: Homo sapiens; Table A1; THP-1 cells, 10 nM MCP-1; read-out: PI3Kγ_THP1_RPS6_ELISA IC50. The format is cell-based, Human. As for the experimental part:
To measure the Phosphorylated Ribosomal Protein S6 (RPS6) in cell lysates, THP-1 cells (Human Acute Monocytic Leukemia) are purchased from ATCC (Manassas, Va.) and maintained in RPMI with 10% FBS (Gibco/Life Technologies, Carlsbad, Calif.). For the assay, THP-1 cells are serum starved overnight in RPMI, then plated in RPMI (2×10^5 cells/well in 90 μL) into 96-well flat-bottom tissue culture treated plates (Corning, Corning, N.Y.), in the presence or absence of a concentration range of test compounds. Covered plates are incubated for 2 hours at 37° C., 5% CO2 then treated with or without 10 nM MCP-1(MYBioSource, San Diego, Calif.) for 15 minutes at 37° C., 5% CO2. Plates are centrifuged at 1600 RPM and supernatants are removed. Cells are lysed in Lysis Buffer (Cell Signaling, Danvers, Mass.) with Protease Inhibitor (Calbiochem/EMD, Germany), PMSF (Sigma, St Louis Mo.), HALTS (Thermo Fisher, Rockford, Ill.) for 30 min on wet ice. Cell lysates are frozen at −80 OC before testing. The lysates are tested in the Human/Mouse/Rat Phospho-RPS6 ELISA (R&D Systems, Inc. Minn, Minn.). The plate is measured using a microplate reader (SpectraMax M5—Molecular Devices, LLC Sunnyvale, Calif.) set to 450 nm with a wavelength correction of 540. IC50 determination is performed by fitting the curve of inhibitor percent inhibition versus the log of the inhibitor concentration using the GraphPad Prism 5.0 software.
With `Cc1ccc(C(O)(C(N)=O)C(F)(F)F)cc1-c1cnc(N)c(C(=O)NCC(C)(C)C#N)n1` (centres unmarked) [Example 15, 3-amino-6-(5-(3-amino-1,1,1-trifluoro-2-hydroxy-3-oxopropan-2-yl)-2-methylphenyl)-N-(2-cyano-2-methylpropyl)pyrazine-2-carboxamide trifluoroacetate], the pIC50 was greater than 7.00.

In the case of `Cc1ccc(C(O)(C(N)=O)C(F)(F)F)cc1-c1cnc(N)c(C(=O)NC2CC3CCC2O3)n1` (single isomer, unassigned) [Example 29, 3-amino-6-(5-(3-amino-1,1,1-trifluoro-2-hydroxy-3-oxopropan-2-yl)-2-methylphenyl)-N-(7-oxabicyclo[2.2.1]heptan-2-yl)pyrazine-2-carboxamide], the pIC50 was greater than 7.00.

For `Cc1ccc(C(O)(C(N)=O)C(F)(F)F)cc1-c1cnc(N)c(C(=O)N[C@H]2CCOC2)n1` (stereo partly drawn) [Example 11, 3-amino-6-(5-(3-amino-1,1,1-trifluoro-2-hydroxy-3-oxopropan-2-yl)-2-methylphenyl)-N-((S)-tetrahydrofuran-3-yl)pyrazine-2-carboxamide trifluoroacetate], the pIC50 was greater than 7.00.

For `Cc1ccc(C(O)(C(N)=O)C(F)(F)F)cc1-c1cnc(N)c(C(=O)NCC(C)(C)O)n1` (centres unmarked) [Example 1, 3-Amino-6-(5-(3-amino-1,1,1-trifluoro-2-hydroxy-3-oxopropan-2-yl)-2-methylphenyl)-N-(2-hydroxy-2-methylpropyl)pyrazine-2-carboxamide], the pIC50 was greater than 7.00.

`Cc1ccc(C(O)(C(N)=O)C(F)(F)F)cc1-c1cnc(N)c(C(=O)NC2CCC(F)(F)CC2)n1` (centres unmarked) [Example 6, 3-amino-6-(5-(3-amino-1,1,1-trifluoro-2-hydroxy-3-oxopropan-2-yl)-2-methylphenyl)-N-(4,4-difluorocyclohexyl)pyrazine-2-carboxamide trifluoroacetate]: the pIC50 was greater than 7.00.

Staying with this experiment, now noted: Homo sapiens; Table A2; THP-1 cells, 10 nM MCP-1; read-out: PI3Kγ_THP1_RPS6_ELISA IC50.
For the compound `COc1cc(C#Cc2nc(-c3cc(C(O)(C(N)=O)C(F)(F)F)ccc3C)cnc2N)cc(OC)c1` (centres unmarked) [Example 60, 2-(3-(5-amino-6-((3,5-dimethoxyphenyl)ethynyl)pyrazin-2-yl)-4-methylphenyl)-3,3,3-trifluoro-2-hydroxypropanamide], the pIC50 was greater than 7.00.

With `Cc1ccc(C(O)(C(N)=O)C(F)(F)F)cc1-c1cnc(N)c(C#CCC(C)O)n1` (centres unmarked) [Example 51, 2-(3-(5-amino-6-(4-hydroxypent-1-ynyl)pyrazin-2-yl)-4-methylphenyl)-3,3,3-trifluoro-2-hydroxypropanamide], the pIC50 was greater than 7.00.

For the compound `Cc1ccc(C(O)(C(N)=O)C(F)(F)F)cc1-c1cnc(N)c(C#Cc2ccc(C#N)cc2)n1` (centres unmarked) [Example 58, 2-(3-(5-amino-6-((4-cyanophenyl)ethynyl)pyrazin-2-yl)-4-methylphenyl)-3,3,3-trifluoro-2-hydroxypropanamide], the pIC50 is greater than 7.00.

For the compound `Cc1ccc(C(O)(C(N)=O)C(F)(F)F)cc1-c1cnc(N)c(C#Cc2ccc(CC#N)cc2)n1` (centres unmarked) [Example 59, 2-(3-(5-amino-6-((4-(cyanomethyl)phenyl)ethynyl)pyrazin-2-yl)-4-methylphenyl)-3,3,3-trifluoro-2-hydroxypropanamide], the pIC50 is greater than 7.00.

The same experiment, now with this note: Homo sapiens; Table A3; THP-1 cells, 10 nM MCP-1; read-out: PI3Kγ_THP1_RPS6_ELISA IC50.
Turning to `Cc1ccc(C(O)(C(N)=O)C(F)(F)F)cc1-c1cnc(N)c(-c2ccc(CO)cc2)n1` (centres unmarked) [Example 88, 2-(3-(5-amino-6-(4-(hydroxymethyl)phenyl)pyrazin-2-yl)-4-methylphenyl)-3,3,3-trifluoro-2-hydroxypropanamide trifluoroacetate], the pIC50 was greater than 6.30.

As for `Cc1ccc(C(O)(C(N)=O)C(F)(F)F)cc1-c1cnc(N)c(-c2ccnc(CO)c2)n1` (centres unmarked) [Example 85, 2-(3-(5-amino-6-(2-(hydroxymethyl)pyridin-4-yl)pyrazin-2-yl)-4-methylphenyl)-3,3,3-trifluoro-2-hydroxypropanamide bistrifluoroacetate], the pIC50 was greater than 6.30.
